Data from article PMC11413964, “Discovery of 1,3-disubstituted prop-2-en-1-one derivatives as inhibitors of neutrophilic inflammation via modulation of MAPK and Akt pathways” (Journal of Enzyme Inhibition and Medicinal Chemistry, 2024).

Tests used:
[1] = system: fMLF/cytochalasin B (CB)-activated human neutrophils; test: Superoxide anion generation (ferricytochrome c reduction) in fMLF/CB-activated human neutrophils; type: cell-based; conditions: Neutrophil, fMLF/CB stimulation, mean ± SEM (n = 3–5); for inhibition at 10 µM: 10 μM compound
Procedure: (§1) The study involving neutrophils was approved by the Institutional Review Board of Chang Gung Memorial Hospital under IRB number: 201902217A3 and was conducted in accordance with the principles of the Declaration of Helsinki. Healthy volunteers aged 20–35 years provided signed informed consents for blood collection. Isolation of neutrophils was done using dextran sedimentation, Ficoll-Hypaque density gradient centrifugation, and hypotonic haemolysis. For the anti-inflammatory studies, neutrophils were suspended in Hank’s balanced salt solution (HBSS) containing 1 mM Ca^2+ at a pH of 7.4[72].
The reduction of ferricytochrome c was utilised to measure the production of SO anions in activated human neutrophils. […] The neutrophils were then stimulated with fMLF (0.1 μM) and CB (1 μg/mL) for 13 min. […] LY294002 was used as a positive control.

[2] = system: fMLF/cytochalasin B (CB)-activated human neutrophils; test: Elastase release in fMLF/CB-activated human neutrophils; type: cell-based; conditions: Homo sapiens, Neutrophil, fMLF/CB stimulation, mean ± SEM (n = 3–5); for inhibition at 10 µM: 10 μM compound
Procedure: as §1
Neutrophils were subsequently stimulated with fMLF (0.1 μM) and CB (0.5 μg/mL) for 13 min. […] LY294002 was used as a positive control.

Row | Compound | melting point | IC50 [1] | IC50 [2] | inhibition at 10 µM [1] | inhibition at 10 µM [2]
1 | COc1ccccc1C(=O)/C=C/c1ccc([N+](=O)[O-])cc1 [Compound 5a, (E)-1-(2-Methoxyphenyl)-3-(4-nitrophenyl)prop-2-en-1-one] | 116.5 to 118 °C | 3.77 ± 0.33 µM | 6.25 ± 0.52 µM | 102 ± 1.92% | 75.6 ± 5.02%
2 | O=C(/C=C/c1ccc([N+](=O)[O-])cc1)c1ccccn1 [Compound 7, (E)-3-(4-Nitrophenyl)-1-(pyridin-2-yl)prop-2-en-1-one] | 153 to 155 °C | 4.35 ± 0.3 µM | 6.17 ± 0.1 µM | 94.5 ± 2.89% | 78.1 ± 0.36%
3 | CC(C)(C)C(=O)/C=C/c1cccc([N+](=O)[O-])c1 [Compound 8, (E)-4,4-Dimethyl-1-(3-nitrophenyl)pent-1-en-3-one] | 92 to 93 °C | – | – | 10.3 ± 2.86% | 4.89 ± 0.91%
4 | CC(C)(C)C(=O)/C=C/c1ccc(C#N)cc1 [Compound 9, (E)-4-(4,4-Dimethyl-3-oxopent-1-en-1-yl)benzonitrile] | 131 to 133 °C | – | – | 20.9 ± 5.55% | 3.76 ± 2.69%
5 | CC(C)(C)Oc1ccc(/C=C/C(=O)C(C)(C)C)cc1 [Compound 11, (E)-1-(4-(tert-Butoxy)phenyl)-4,4-dimethylpent-1-en-3-one] | 110 to 111 °C | – | – | 16.8 ± 3.85% | 12.1 ± 3.43%
6 | CC(C)(C)Oc1ccc(/C=C/C(=O)c2ccco2)cc1 [Compound 12, (E)-3-(4-(tert-Butoxy)phenyl)-1-(furan-2-yl)prop-2-en-1-one] | 132.8 to 134.8 °C | – | – | 27.3 ± 2.07% | 19.2 ± 4.05%
7 | COc1ccc(C(=O)/C=C/c2ccc(Cl)cc2)cc1 [Compound 14a, (E)-3-(4-Chlorophenyl)-1-(4-methoxyphenyl)prop-2-en-1-one] | – | 6.09 ± 7.19 µM | – | 58.9 ± 3.26% | 5.49 ± 4.32%
8 | COc1ccc(C(=O)/C=C/c2ccc(Cl)cc2)c(OC)c1 [Compound 15a, (E)-3-(4-Chlorophenyl)-1-(2,4-dimethoxyphenyl)prop-2-en-1-one] | – | – | – | 13.9 ± 2.43% | 4.42 ± 3.9%
9 | CC(C)(C)C(=O)/C=C/c1ccc(Cl)c(Cl)c1 [Compound 16, (E)-1-(3,4-Dichlorophenyl)-4,4-dimethylpent-1-en-3-one] | 94 to 96 °C | – | – | 16.5 ± 4.67% | 10.2 ± 0.59%
10 | COc1ccc(C(=O)/C=C/c2ccc(Cl)cc2)cc1OC [Compound 16a, (E)-3-(4-Chlorophenyl)-1-(3,4-dimethoxyphenyl)prop-2-en-1-one] | – | 5.53 ± 1.48 µM | – | 68.2 ± 7.74% | 22.9 ± 7.11%
11 | COc1ccc(C(=O)/C=C/c2ccccc2Cl)cc1OC [Compound 20a, (E)-3-(2-Chlorophenyl)-1-(3,4-dimethoxyphenyl)prop-2-en-1-one] | – | 3.55 ± 0.56 µM | 6.79 ± 0.72 µM | 95.6 ± 1.14% | 67.7 ± 5.37%
12 | CC(C)(C)C(=O)/C=C/c1ccc(Br)s1 [Compound 24, (E)-1-(5-Bromothiophen-2-yl)-4,4-dimethylpent-1-en-3-one] | – | – | – | 13 ± 6.88% | 25.7 ± 5.36%
13 | CCOc1ccccc1C(=O)/C=C/c1ccc(Br)s1 [Compound 25, (E)-3-(5-Bromothiophen-2-yl)-1-(2-ethoxyphenyl)prop-2-en-1-one] | – | 6.21 ± 0.36 µM | – | 67.8 ± 3.19% | 26.9 ± 5.5%
14 | CC(C)(C)C(=O)/C=C/c1ccc2ccccc2n1 [Compound 27, (E)-4,4-Dimethyl-1-(quinolin-2-yl)pent-1-en-3-one] | – | – | – | 2.26 ± 0.97% | 5.21 ± 2.72%
15 | O=c1cc(N2CCOCC2)oc2c(-c3ccccc3)cccc12 [LY294002, reference compound] | – | – | – | 102 ± 2.64% | 82.5 ± 3.76%

Further lines, with some results ahead:

Row | melting point | IC50 [1] | IC50 [2] | Compound | inhibition at 10 µM [1] | inhibition at 10 µM [2]
16 | 85 to 85.5 °C | – | – | CC(C)(C)C(=O)/C=C/c1ccc(Cl)cc1 [Compound 1, (E)-1-(4-Chlorophenyl)-4,4-dimethylpent-1-en-3-one] | 23.4 ± 7.96% | 8.43 ± 4.28%
17 | 118.9 to 120 °C | – | – | O=C(/C=C/c1ccc([N+](=O)[O-])cc1)C1CC1 [Compound 1a, (E)-1-Cyclopropyl-3-(4-nitrophenyl)prop-2-en-1-one] | 20.5 ± 4.05% | 2.36 ± 3.3%
18 | – | 3.01 ± 0.68 µM | 7.78 ± 0.96 µM | O=C(/C=C/c1ccc(Cl)cc1)c1ccccc1 [Compound 2, (E)-3-(4-Chlorophenyl)-1-phenylprop-2-en-1-one] | 94.7 ± 3.22% | 62 ± 6.31%
19 | 133.1 °C | – | – | CC1(C(=O)/C=C/c2ccc([N+](=O)[O-])cc2)CC1 [Compound 2a, (E)-1-(1-Methylcyclopropyl)-3-(4-nitrophenyl)prop-2-en-1-one] | 8.75 ± 5.03% | 8.39 ± 2.25%
20 | 101 °C | – | – | CC(C)(C)C(=O)/C=C/c1ccc(Br)cc1 [Compound 3, (E)-1-(4-Bromophenyl)-4,4-dimethylpent-1-en-3-one] | 25 ± 2.48% | 9.09 ± 2.01%
21 | 132 to 134 °C | – | – | O=C(/C=C/c1ccc([N+](=O)[O-])cc1)C1CCCCC1 [Compound 3a, (E)-1-Cyclohexyl-3-(4-nitrophenyl)prop-2-en-1-one] | 11.4 ± 1.6% | 11.9 ± 4.68%
22 | 70 to 71 °C | – | – | CC(C)(C)C(=O)/C=C/c1ccc(C(F)(F)F)cc1 [Compound 4, (E)-4,4-Dimethyl-1-(4-(trifluoromethyl)phenyl)pent-1-en-3-one] | 11.7 ± 5.39% | 1.18 ± 0.98%
23 | 128 to 129 °C | 4.55 ± 0.1 µM | 7.22 ± 1.16 µM | Cc1ccccc1C(=O)/C=C/c1ccc([N+](=O)[O-])cc1 [Compound 4a, (E)-3-(4-Nitrophenyl)-1-(o-tolyl)prop-2-en-1-one] | 100 ± 2.65% | 63.8 ± 5.98%
24 | 70.5 to 71.5 °C | 1.81 ± 0.22 µM | – | CCOc1ccccc1C(=O)/C=C/c1ccccc1C(F)(F)F [Compound 5, (E)-1-(2-Ethoxyphenyl)-3-(2-(trifluoromethyl)phenyl)prop-2-en-1-one] | 68.3 ± 8.99% | 8.13 ± 3.43%
25 | – | 6.9 ± 0.67 µM | 6.33 ± 1.15 µM | COc1ccc(C(=O)/C=C/c2ccc([N+](=O)[O-])cc2)cc1 [Compound 7a, (E)-1-(4-Methoxyphenyl)-3-(4-nitrophenyl)prop-2-en-1-one] | 59.7 ± 1.41% | 63.8 ± 6.59%
26 | 189 to 191 °C | 2.72 ± 0.35 µM | 8.31 ± 0.78 µM | COc1ccc(C(=O)/C=C/c2ccc([N+](=O)[O-])cc2)cc1OC [Compound 8a, (E)-1-(3,4-Dimethoxyphenyl)-3-(4-nitrophenyl)prop-2-en-1-one] | 81 ± 2.57% | 56.9 ± 3.22%
27 | 182.4 °C | – | – | O=C(/C=C/c1ccc([N+](=O)[O-])cc1)c1ccc2c(c1)OCO2 [Compound 9a, (E)-1-(Benzo[d][1,3]dioxol-5-yl)-3-(4-nitrophenyl)prop-2-en-1-one] | 18.1 ± 3.34% | 16.7 ± 6.07%
28 | 79 to 80 °C | – | – | Cc1ccc(/C=C/C(=O)C(C)(C)C)cc1 [Compound 10, (E)-4,4-Dimethyl-1-(p-tolyl)pent-1-en-3-one] | 8.56 ± 3.04% | 3.91 ± 2.82%
29 | 162 to 164 °C | – | – | O=C(/C=C/c1ccc(Cl)cc1)c1ccc2ccccc2c1 [Compound 10a, (E)-3-(4-Chlorophenyl)-1-(naphthalen-2-yl)prop-2-en-1-one] | 14.2 ± 6.87% | 33.2 ± 6.47%
30 | 76 to 78 °C | 3.47 ± 0.6 µM | 7.56 ± 1.05 µM | COc1ccccc1C(=O)/C=C/c1ccc(Cl)cc1 [Compound 12a, (E)-3-(4-Chlorophenyl)-1-(2-methoxyphenyl)prop-2-en-1-one] | 93.8 ± 3.02% | 62.2 ± 5.35%
31 | – | 1.37 ± 0.73 µM | 3.3 ± 0.68 µM | COc1cccc(C(=O)/C=C/c2ccc(Cl)cc2)c1 [Compound 13a, (E)-3-(4-Chlorophenyl)-1-(3-methoxyphenyl)prop-2-en-1-one] | 101.7 ± 0.44% | 91.9 ± 1.63%
32 | 71 to 72 °C | 6.52 ± 0.57 µM | – | CC(C)(C)C(=O)/C=C/c1cc(F)cc(F)c1 [Compound 14, (E)-1-(3,5-Difluorophenyl)-4,4-dimethylpent-1-en-3-one] | 69.1 ± 6.71% | 12 ± 3.52%
33 | 98.5 to 99.2 °C | – | – | CC(C)(C)C(=O)/C=C/c1ccc(Cl)c(F)c1 [Compound 17, (E)-1-(4-Chloro-3-fluorophenyl)-4,4-dimethylpent-1-en-3-one] | 40.6 ± 3.89% | 9.13 ± 1.78%
34 | 60 to 62 °C | 2.95 ± 0.4 µM | 5.36 ± 0.67 µM | COc1ccccc1C(=O)/C=C/c1ccccc1Cl [Compound 17a, (E)-3-(2-Chlorophenyl)-1-(2-methoxyphenyl)prop-2-en-1-one] | 99.05 ± 0.64% | 75.8 ± 6.19%
35 | – | 5.23 ± 0.62 µM | – | COc1ccc(C(=O)/C=C/c2ccccc2Cl)cc1 [Compound 19a, (E)-3-(2-Chlorophenyl)-1-(4-methoxyphenyl)prop-2-en-1-one] | 80.2 ± 1.98% | 37.6 ± 3.54%
